Here are results for seven compounds from ChEMBL document CHEMBL1141313 (Bioorg Med Chem, 2007).

In test [1] the target is Protease (Human immunodeficiency virus 1) (UniProt Q9YQ12). The test is described as follows: (§1) Inhibition of HIV1 protease.
Test [2] has as its system Human immunodeficiency virus 1. The test is described as follows: Antiviral activity against HIV1 in CEM cells. Format: functional. The note with it: Human immunodeficiency virus 1, CCRF-CEM; for IC50: read-out: ID50 (the source's name).
The target in test [3] is T1, Protease (Human immunodeficiency virus 1, UniProt Q9YQ12). Described as §1.
Target sequence in this assay (Q9YQ12 whole entry): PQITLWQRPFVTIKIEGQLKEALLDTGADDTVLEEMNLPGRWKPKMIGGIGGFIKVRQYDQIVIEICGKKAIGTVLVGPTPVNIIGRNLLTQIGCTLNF
In test [4] the target is T1, Protease. The experiment in a line: Inhibition of HIV1 protease mutant.
Target sequence in this assay (Q9YQ12 1-99): as the sequence (Q9YQ12 whole entry) above
The subject of test [5] is Human immunodeficiency virus 1. The test is described as follows: Antiviral activity against protease inhibitor-resistant HIV1 isolate. It counts as functional, organism-based.
For test [6], the system named is Human immunodeficiency virus 1. The test is described as follows: Antiviral activity against HIV1 in MT4 cells. It counts as functional.

The structures appear in SMILES notation.

Protease (Human immunodeficiency virus 1), sequence (Q9YQ12 as listed by the source): as the sequence (Q9YQ12 whole entry) above

The compound `COC(=O)N[C@H](C(=O)NCCCC[C@@H](COP(=O)(O)O)N(CC(C)C)S(=O)(=O)c1ccc(N)cc1)C(c1ccccc1)c1ccccc1` returned an Activity in test [1] of less than 20 nM.
Consider `CC(C)(C)NC(=O)[C@@H]1C[C@@H]2CCCC[C@@H]2CN1C[C@@H](O)[C@H](Cc1ccccc1)NC(=O)O[C@H]1CO[C@H]2OCC[C@H]21`, for which, in test [2] (read-out: CIC95), the IC95 was determined as 46 nM. Besides, at Protease [3], the IC50 was found to be 1.8 nM.
For `CC(C)CN(C[C@@H](O)[C@H](Cc1ccccc1)NC(=O)O[C@@H]1C[C@@H]2CCO[C@@H]2C1)S(=O)(=O)c1ccc(CO)cc1`, on Protease [3], the IC50 was 1.8 nM and the Ki was 0.0045 nM.
In the case of `COC(=O)N[C@H](C(=O)NCCCC[C@@H](CO)N(CC(C)C)S(=O)(=O)c1ccc(N)cc1)C(c1ccccc1)c1ccccc1`, the Activity in test [1] is less than 20 nM.
`C=CCNC(=O)[C@H]1NC(C(=O)[C@@H](O)[C@H](Cc2ccccc2)NC(=O)c2cccc(O)c2)SC1(C)C` (stereo partly drawn): the Ki on Protease [3] and at Protease [4] was 0.1 nM in each case. Further, the response in test [5] was half-maximal at 34 nM (EC50).
Take `CC(C)CN(C[C@@H](O)[C@H](Cc1ccccc1)NC(=O)O[C@H]1CO[C@H]2OCC[C@H]21)S(=O)(=O)c1ccc(N)cc1`: the IC50 in test [2] stood at 4.7 nM. In test [6], this compound registered an ID90 of 10 nM and a TD50 greater than 100 µM.
Turning to `COc1ccc(S(=O)(=O)N(CC(C)C)C[C@@H](O)[C@H](Cc2ccccc2)NC(=O)O[C@H]2CO[C@H]3OCC[C@H]32)cc1`, the IC50 in test [2] is 1.2 nM.

A word on the Ki: it is the equilibrium dissociation constant of an inhibitor or competing ligand from its target. Higher therefore signals weaker binding. The EC50 is the concentration that produces a half-maximal response. Higher therefore signals a need for much substance.
